Our source for the IC50 and Ki values is ChEMBL document CHEMBL1909046, “DrugMatrix in vitro pharmacology data”.

Chain of Sodium-dependent dopamine transporter (Q01959 whole entry): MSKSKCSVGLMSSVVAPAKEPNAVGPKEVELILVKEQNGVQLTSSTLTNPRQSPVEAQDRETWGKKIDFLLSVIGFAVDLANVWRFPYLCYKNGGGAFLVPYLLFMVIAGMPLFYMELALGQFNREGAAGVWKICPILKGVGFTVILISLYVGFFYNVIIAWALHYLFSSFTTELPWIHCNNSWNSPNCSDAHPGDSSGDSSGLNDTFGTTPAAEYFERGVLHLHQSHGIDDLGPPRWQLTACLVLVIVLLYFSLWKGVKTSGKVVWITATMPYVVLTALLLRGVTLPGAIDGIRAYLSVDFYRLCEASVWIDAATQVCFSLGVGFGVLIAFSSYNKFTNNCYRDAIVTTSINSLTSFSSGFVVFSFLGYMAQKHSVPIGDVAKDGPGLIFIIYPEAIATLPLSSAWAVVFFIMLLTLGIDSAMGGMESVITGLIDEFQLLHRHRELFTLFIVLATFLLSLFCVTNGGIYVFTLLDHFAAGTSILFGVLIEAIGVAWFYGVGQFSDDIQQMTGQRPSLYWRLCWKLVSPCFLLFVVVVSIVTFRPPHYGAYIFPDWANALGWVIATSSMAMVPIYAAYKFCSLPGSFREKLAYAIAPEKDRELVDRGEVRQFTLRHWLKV

The first assay has as its target T1, 3-hydroxy-3-methylglutaryl-coenzyme A reductase (Homo sapiens, UniProt P04035).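 Note: enzyme inhibition assay of HMG-CoA reductase using radiolabeled [14C]HMG-CoA as substrate; in other assays of this panel Not Active means under 50% inhibition at 10 µM.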
T1 sequence (P04035 whole entry): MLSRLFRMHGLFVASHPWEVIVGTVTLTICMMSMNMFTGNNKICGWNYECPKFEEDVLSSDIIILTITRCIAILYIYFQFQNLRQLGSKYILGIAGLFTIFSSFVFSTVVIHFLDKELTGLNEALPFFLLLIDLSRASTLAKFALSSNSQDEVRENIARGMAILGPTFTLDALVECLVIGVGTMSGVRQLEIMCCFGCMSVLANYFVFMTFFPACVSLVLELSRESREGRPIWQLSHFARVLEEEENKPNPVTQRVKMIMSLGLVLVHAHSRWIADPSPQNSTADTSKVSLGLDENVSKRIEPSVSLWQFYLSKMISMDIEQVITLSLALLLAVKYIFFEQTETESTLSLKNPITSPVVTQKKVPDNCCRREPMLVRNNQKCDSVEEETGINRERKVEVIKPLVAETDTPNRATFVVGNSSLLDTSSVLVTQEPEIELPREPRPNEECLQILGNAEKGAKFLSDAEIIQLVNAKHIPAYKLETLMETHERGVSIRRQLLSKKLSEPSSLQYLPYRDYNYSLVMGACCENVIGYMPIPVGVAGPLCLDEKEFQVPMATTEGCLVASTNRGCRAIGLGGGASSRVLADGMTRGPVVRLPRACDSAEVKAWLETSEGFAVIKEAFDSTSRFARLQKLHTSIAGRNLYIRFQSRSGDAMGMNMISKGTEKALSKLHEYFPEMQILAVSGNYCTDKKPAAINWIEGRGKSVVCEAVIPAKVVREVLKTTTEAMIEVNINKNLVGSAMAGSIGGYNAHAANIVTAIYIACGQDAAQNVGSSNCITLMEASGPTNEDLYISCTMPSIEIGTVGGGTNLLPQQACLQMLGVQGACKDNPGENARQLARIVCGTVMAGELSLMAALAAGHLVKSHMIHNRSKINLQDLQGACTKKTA
Set-up: species or system Escherichia coli.
Details: not given
For the molecule `CN/C(=N\CCSCc1nc[nH]c1C)NC#N` [CIMETIDINE], the IC50 (as a rule, the midpoint of a concentration-inhibition curve) was “Not Active”.
With `CCC(=O)O[C@]1(C(=O)CCl)[C@@H](C)C[C@H]2[C@@H]3CCC4=CC(=O)C=C[C@]4(C)[C@@]3(F)[C@@H](O)C[C@@]21C` [CLOBETASOL PROPIONATE], the half-inhibitory concentration (IC50) entry is on record as “Not Active”.
Still for that read-out and setting: then `O=C1CN=C(c2ccccc2Cl)c2cc([N+](=O)[O-])ccc2N1` [CLONAZEPAM], with “Not Active”.

The same assay, now with this note: read-out: IC50.
On to `COc1cc(N)c(Cl)cc1C(=O)NC1CCN(CCCOc2ccc(F)cc2)CC1OC` (stereo unspecified) [CISAPRIDE], for which the IC50 stood at 3370 nM.

In the next assay the target is T2, Vasoactive intestinal polypeptide receptor 1 (Homo sapiens, UniProt P32241). Note: in other assays of this panel Not Active means under 50% inhibition at 10 µM.
T2 sequence (P32241 whole entry): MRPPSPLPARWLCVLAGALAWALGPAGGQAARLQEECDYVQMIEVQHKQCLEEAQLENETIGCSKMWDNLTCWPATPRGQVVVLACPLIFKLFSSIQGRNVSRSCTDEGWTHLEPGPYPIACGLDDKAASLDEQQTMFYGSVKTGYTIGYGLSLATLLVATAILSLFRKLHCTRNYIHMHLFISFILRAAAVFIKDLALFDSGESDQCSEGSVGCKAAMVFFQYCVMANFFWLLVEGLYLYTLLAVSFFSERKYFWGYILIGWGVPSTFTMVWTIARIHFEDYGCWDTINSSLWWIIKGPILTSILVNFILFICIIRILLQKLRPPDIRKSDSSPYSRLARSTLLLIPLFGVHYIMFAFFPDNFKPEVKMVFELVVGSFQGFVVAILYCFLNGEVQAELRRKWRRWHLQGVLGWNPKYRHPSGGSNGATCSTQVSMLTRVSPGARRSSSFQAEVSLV
In kind it is cell membranes, Membrane. The note with it: ht-29.
Regarding `CN/C(=N\CCSCc1nc[nH]c1C)NC#N` [CIMETIDINE], the IC50 entry is given as “Not Active”.
For the molecule `COc1cc(N)c(Cl)cc1C(=O)NC1CCN(CCCOc2ccc(F)cc2)CC1OC` (stereo unspecified) [CISAPRIDE], the IC50 result was “Not Active”.
With `CCC(=O)O[C@]1(C(=O)CCl)[C@@H](C)C[C@H]2[C@@H]3CCC4=CC(=O)C=C[C@]4(C)[C@@]3(F)[C@@H](O)C[C@@]21C` [CLOBETASOL PROPIONATE], the IC50 entry is “Not Active”.
With `O=C1CN=C(c2ccccc2Cl)c2cc([N+](=O)[O-])ccc2N1` [CLONAZEPAM], the IC50 result was “Not Active”.

Tested on in the next assay: not listed separately
Description: DRUGMATRIX: Potassium Channel [KATP] radioligand binding (ligand: [3H] Glyburide). Format: cell membranes, Membrane. As to conditions: hit-t15; Not Active = under 50% inhibition at 10 µM.
With `CN/C(=N\CCSCc1nc[nH]c1C)NC#N` [CIMETIDINE], the IC50 result was “Not Active” and the Ki (usually the equilibrium dissociation constant of an inhibitor or competing ligand from its target) was “Not Active”.
On to `COc1cc(N)c(Cl)cc1C(=O)NC1CCN(CCCOc2ccc(F)cc2)CC1OC` (stereo unspecified) [CISAPRIDE], for which the IC50 result is given as “Not Active” and the inhibition constant (Ki) result is on record as “Not Active”.
As to `CCC(=O)O[C@]1(C(=O)CCl)[C@@H](C)C[C@H]2[C@@H]3CCC4=CC(=O)C=C[C@]4(C)[C@@]3(F)[C@@H](O)C[C@@]21C` [CLOBETASOL PROPIONATE], the IC50 entry is “Not Active” and the inhibition constant Ki result is on record as “Not Active”.
On to `O=C1CN=C(c2ccccc2Cl)c2cc([N+](=O)[O-])ccc2N1` [CLONAZEPAM], for which the half-maximal inhibitory concentration (IC50) result is “Not Active” and the inhibition constant Ki entry was “Not Active”.

Tested on in a further assay: not listed separately
As to the kind of experiment: DRUGMATRIX: Atrial Natriuretic Factor (ANF) radioligand binding (ligand: [125I] ANF (rat)). In kind it is cell membranes, Cavia porcellus, Dunkin-Hartley, Adrenal gland, Membrane. As to conditions: Not Active = under 50% inhibition at 10 µM.
As to `CN/C(=N\CCSCc1nc[nH]c1C)NC#N` [CIMETIDINE], the concentration for half-maximal inhibition (IC50) entry is “Not Active” and the Ki result is “Not Active”.
With `COc1cc(N)c(Cl)cc1C(=O)NC1CCN(CCCOc2ccc(F)cc2)CC1OC` (stereo unspecified) [CISAPRIDE], the IC50 result was “Not Active” and the inhibition constant Ki result is reported as “Not Active”.
With `CCC(=O)O[C@]1(C(=O)CCl)[C@@H](C)C[C@H]2[C@@H]3CCC4=CC(=O)C=C[C@]4(C)[C@@]3(F)[C@@H](O)C[C@@]21C` [CLOBETASOL PROPIONATE], the IC50 entry is reported as “Not Active” and the inhibition constant (Ki) result was “Not Active”.
`O=C1CN=C(c2ccccc2Cl)c2cc([N+](=O)[O-])ccc2N1` [CLONAZEPAM]: the IC50 entry is “Not Active” and the Ki entry is on record as “Not Active”.

The next assay addresses Sodium-dependent dopamine transporter (Homo sapiens, UniProt Q01959). As to the kind of experiment: DRUGMATRIX: Dopamine Transporter radioligand binding (ligand: [125I] RTI-55). In kind it is cell membranes, CHO-K1, Membrane. As to conditions: cho-k1; Not Active = under 50% inhibition at 10 µM.
Take `CN/C(=N\CCSCc1nc[nH]c1C)NC#N` [CIMETIDINE]: the IC50 entry is given as “Not Active”.
With `COc1cc(N)c(Cl)cc1C(=O)NC1CCN(CCCOc2ccc(F)cc2)CC1OC` (stereo unspecified) [CISAPRIDE], the IC50 result is given as “Not Active”.
`CCC(=O)O[C@]1(C(=O)CCl)[C@@H](C)C[C@H]2[C@@H]3CCC4=CC(=O)C=C[C@]4(C)[C@@]3(F)[C@@H](O)C[C@@]21C` [CLOBETASOL PROPIONATE]: the 50% inhibitory concentration (IC50) entry is listed as “Not Active”.
In the case of `O=C1CN=C(c2ccccc2Cl)c2cc([N+](=O)[O-])ccc2N1` [CLONAZEPAM], the half-inhibitory concentration (IC50) result is “Not Active”.

Tested on in a further assay: not listed separately
Description: DRUGMATRIX: Glutamate, Kainate radioligand binding (ligand: [3H] Kainic acid). As to conditions: Not Active = under 50% inhibition at 10 µM. In kind it is cell membranes, Rattus norvegicus, Wistar, Brain, Membrane.
For `CN/C(=N\CCSCc1nc[nH]c1C)NC#N` [CIMETIDINE], the IC50 entry is reported as “Not Active” and the Ki result is on record as “Not Active”.
In the case of `COc1cc(N)c(Cl)cc1C(=O)NC1CCN(CCCOc2ccc(F)cc2)CC1OC` (stereo unspecified) [CISAPRIDE], the 50% inhibitory concentration (IC50) entry is “Not Active” and the Ki result is “Not Active”.
`CCC(=O)O[C@]1(C(=O)CCl)[C@@H](C)C[C@H]2[C@@H]3CCC4=CC(=O)C=C[C@]4(C)[C@@]3(F)[C@@H](O)C[C@@]21C` [CLOBETASOL PROPIONATE]: the concentration for half-maximal inhibition (IC50) result is “Not Active” and the inhibition constant Ki result was “Not Active”.
`O=C1CN=C(c2ccccc2Cl)c2cc([N+](=O)[O-])ccc2N1` [CLONAZEPAM]: the concentration for half-maximal inhibition (IC50) entry is listed as “Not Active” and the Ki entry is “Not Active”.

Another assay concerns the target T3, Progesterone receptor (Bos taurus, UniProt Q690N0).
T3 sequence (Q690N0 whole entry): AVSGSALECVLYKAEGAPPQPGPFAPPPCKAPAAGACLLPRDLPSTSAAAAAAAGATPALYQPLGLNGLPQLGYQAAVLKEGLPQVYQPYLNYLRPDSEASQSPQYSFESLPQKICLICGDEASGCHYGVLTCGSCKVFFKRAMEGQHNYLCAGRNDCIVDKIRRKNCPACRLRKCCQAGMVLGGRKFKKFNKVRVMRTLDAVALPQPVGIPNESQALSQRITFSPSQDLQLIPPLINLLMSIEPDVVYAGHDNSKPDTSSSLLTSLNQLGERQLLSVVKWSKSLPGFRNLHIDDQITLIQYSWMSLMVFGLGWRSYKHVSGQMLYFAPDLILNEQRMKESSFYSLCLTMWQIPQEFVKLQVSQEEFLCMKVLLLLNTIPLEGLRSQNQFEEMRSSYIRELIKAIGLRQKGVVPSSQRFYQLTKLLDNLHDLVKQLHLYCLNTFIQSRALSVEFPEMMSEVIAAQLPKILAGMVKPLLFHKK
Description: DRUGMATRIX: Progesterone radioligand binding (ligand: [3H] R-5020). In kind it is tissue-based, Uterus. The note with it: Not Active = under 50% inhibition at 10 µM.
Consider `CN/C(=N\CCSCc1nc[nH]c1C)NC#N` [CIMETIDINE], for which the IC50 result is given as “Not Active”.
Turning to `COc1cc(N)c(Cl)cc1C(=O)NC1CCN(CCCOc2ccc(F)cc2)CC1OC` (stereo unspecified) [CISAPRIDE], the IC50 result was “Not Active”.
Consider `O=C1CN=C(c2ccccc2Cl)c2cc([N+](=O)[O-])ccc2N1` [CLONAZEPAM], for which the half-inhibitory concentration (IC50) entry was “Not Active”.

The assay is the same for the next values; noted with them: Not Active = under 50% inhibition at 10 µM; read-out: IC50.
With `CCC(=O)O[C@]1(C(=O)CCl)[C@@H](C)C[C@H]2[C@@H]3CCC4=CC(=O)C=C[C@]4(C)[C@@]3(F)[C@@H](O)C[C@@]21C` [CLOBETASOL PROPIONATE], the half-maximal inhibitory concentration (IC50) was found to be 12 nM.

The assay is the same for the next values; noted with them: Not Active = under 50% inhibition at 10 µM; read-out: Ki.
Turning to `CCC(=O)O[C@]1(C(=O)CCl)[C@@H](C)C[C@H]2[C@@H]3CCC4=CC(=O)C=C[C@]4(C)[C@@]3(F)[C@@H](O)C[C@@]21C` [CLOBETASOL PROPIONATE], the inhibition constant (Ki) came to 1.52 nM.
